Source: the supplement of paper PMC10307832

Key:
Experiment in all cases: relative viability (nuclei count vs DMSO), 5 days (fraction); higher = more cells survive
PAC-1 + Lapatinib = compound: C=CCc1cccc(/C=N/NC(=O)CN2CCN(Cc3ccccc3)CC2)c1O [PAC-1] + CS(=O)(=O)CCNCc1ccc(-c2ccc3ncnc(Nc4ccc(OCc5cccc(F)c5)c(Cl)c4)c3c2)o1 [Lapatinib] (partner 2 µM)
In short: (§1)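 Cells from lung cancer lines were seeded into 1536-well plates and, one day later, dosed by pin tool. Treatments were either a single drug or a fixed dose of an anchor drug with five library-drug doses (not always all listed) in √10 steps. After 5 days, nuclei were stained in a one-step fixation (final 0.05% Triton X-100, 1% formaldehyde, 1 ug/ml Hoechst) and counted on 4× images, and relative viability is the treated-to-vehicle nuclei ratio, as the median of duplicate plates.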

Ibrutinib + Dasatinib = compound: C=CC(=O)N1CCC[C@@H](n2nc(-c3ccc(Oc4ccccc4)cc3)c3c(N)ncnc32)C1 [Ibrutinib] + Cc1nc(Nc2ncc(C(=O)Nc3c(C)cccc3Cl)s2)cc(N2CCN(CCO)CC2)n1 [Dasatinib] (partner 0.075 µM)
In short: as §1

BMX-IN-1 + Dasatinib = compound: C=CC(=O)Nc1cc(-n2c(=O)ccc3cnc4ccc(-c5ccc(NS(C)(=O)=O)cc5)cc4c32)ccc1C [BMX-IN-1] + Cc1nc(Nc2ncc(C(=O)Nc3c(C)cccc3Cl)s2)cc(N2CCN(CCO)CC2)n1 [Dasatinib] (partner 0.075 µM)
In short: as §1

PAC-1 + Phenformin = compound: C=CCc1cccc(/C=N/NC(=O)CN2CCN(Cc3ccccc3)CC2)c1O [PAC-1] + N=C(N)NC(=N)NCCc1ccccc1 [Phenformin] (partner 250 µM)
In short: as §1

Cell Line | relative viability (PAC-1 + Lapatinib; first compound 0.02 µM) | relative viability (PAC-1 + Lapatinib; first compound 0.06325 µM) | relative viability (PAC-1 + Lapatinib; first compound 0.2 µM) | relative viability (PAC-1 + Lapatinib; first compound 2 µM) | relative viability (Ibrutinib + Dasatinib; first compound 0.005 µM) | relative viability (Ibrutinib + Dasatinib; first compound 0.01581 µM) | relative viability (Ibrutinib + Dasatinib; first compound 0.05 µM) | relative viability (Ibrutinib + Dasatinib; first compound 0.1581 µM) | relative viability (Ibrutinib + Dasatinib; first compound 0.5 µM) | relative viability (BMX-IN-1 + Dasatinib; first compound 0.02 µM) | relative viability (BMX-IN-1 + Dasatinib; first compound 0.2 µM) | relative viability (BMX-IN-1 + Dasatinib; first compound 0.6325 µM) | relative viability (BMX-IN-1 + Dasatinib; first compound 2 µM) | relative viability (PAC-1 + Phenformin; first compound 0.02 µM) | relative viability (PAC-1 + Phenformin; first compound 0.06325 µM) | relative viability (PAC-1 + Phenformin; first compound 0.2 µM) | relative viability (PAC-1 + Phenformin; first compound 2 µM)
NCI-H1993 | 0.774 | 0.835 | 0.838 | 0.887 | 0.504 | 0.658 | 0.532 | 0.53 | 0.56 | 0.659 | 0.703 | 0.479 | 0.634 | 0.42 | 0.513 | 0.595 | 0.498
NCI-H2009 | 0.93 | 0.318 | 0.855 | 0.9 | 0.3 | 0.254 | 0.319 | 0.267 | 0.386 | 0.303 | 0.294 | 0.278 | 0.271 | 0.473 | 0.481 | 0.451 | 0.484
NCI-H2023 | 1.1 | 0.849 | 0.768 | 0.847 | 0.578 | 0.546 | 0.532 | 0.55 | 0.516 | 0.767 | 0.637 | 0.667 | 0.682 | 0.427 | 0.404 | 0.405 | 0.397
NCI-H2085 | 0.756 | 0.728 | 0.707 | 0.909 | 0.26 | 0.254 | 0.219 | 0.202 | 0.216 | 0.246 | 0.223 | 0.236 | 0.227 | 0.747 | 0.757 | 0.723 | 0.815
NCI-H2087 | 1.07 | 1.06 | 0.815 | 0.922 | 1.11 | 0.91 | 1.01 |  | 0.951 | 1.25 | 0.931 | 1.03 | 0.926 | 0.398 | 0.42 | 0.344 | 0.377
NCI-H2126 | 0.745 | 0.763 | 0.817 | 0.816 | 0.506 | 0.57 | 0.546 | 0.574 | 0.623 | 0.624 | 0.645 | 0.616 | 0.601 | 0.515 | 0.524 | 0.517 | 0.513
NCI-H2170 | 0.247 | 0.258 | 0.255 | 0.264 | 0.464 | 0.413 | 0.209 | 0.447 | 0.211 | 0.609 | 0.634 | 0.67 | 0.586 | 0.426 | 0.356 | 0.422 | 0.384
NCI-H2228 | 1.26 | 1.25 | 1.02 | 1.23 | 0.584 |  | 0.553 | 0.5 | 0.428 | 0.497 | 0.672 | 0.593 | 0.561 | 0.303 | 0.303 | 0.306 | 0.318
NCI-H2347 | 0.947 | 0.885 | 0.859 | 0.892 |  | 0.298 | 0.274 | 0.188 | 0.302 | 0.344 | 0.281 | 0.287 | 0.323 | 0.184 | 0.441 | 0.352 | 0.553
NCI-H2405 | 1.03 | 1.17 | 1.14 | 1.24 | 0.232 | 0.19 | 0.189 | 0.206 | 0.237 | 0.225 | 0.501 | 0.223 | 0.19 | 0.398 | 0.403 | 0.391 | 0.361
NCI-H3122 | 1.01 | 1.03 | 0.983 | 0.953 | 0.816 | 0.841 | 0.699 | 0.676 | 0.771 | 1.03 | 0.936 | 0.837 | 0.84 | 0.378 | 0.377 | 0.365 | 0.333
PC-3 [JPC-3] | 0.416 | 0.474 | 0.447 | 0.465 | 0.865 | 0.862 | 0.774 | 0.979 | 0.327 | 1 | 1.19 | 1.07 | 0.943 | 0.484 | 0.468 | 0.461 | 0.489
PC-14 | 0.324 | 0.315 | 0.275 | 0.321 |  | 0.228 | 0.209 | 0.312 | 0.0569 | 0.313 | 0.227 | 0.339 | 0.279 | 0.59 | 0.683 | 0.727 | 0.633
RERF-LC-KJ | 0.857 | 0.817 | 0.864 | 0.87 | 0.936 | 0.637 | 0.757 | 0.85 | 0.88 | 1.08 | 0.883 | 0.82 | 0.939 | 0.414 | 0.392 | 0.407 | 0.427
SK-LU-1 | 0.601 | 0.942 | 0.67 | 0.867 | 0.179 | 0.162 | 0.17 | 0.183 | 0.162 | 0.22 | 0.174 | 0.169 | 0.171 | 0.568 | 0.547 | 0.432 | 0.587
SW 1573 | 1.05 | 1.16 | 1 | 1.09 | 0.647 | 0.494 | 0.477 | 0.588 | 0.514 | 0.531 | 0.63 | 0.456 | 0.528 | 0.372 | 0.352 | 0.36 | 0.303
UMC-11 | 0.994 | 0.987 | 0.978 | 1.07 | 0.417 | 0.411 | 0.485 | 0.548 | 0.486 | 0.542 | 0.591 | 0.549 | 0.475 | 0.325 | 0.368 | 0.298 | 0.326
